Test results: US20250034264A1, “REGULATING T CELL IMMUNE RESPONSE THROUGH IGF-I RECEPTOR (IGF-1R)” (The Regents of the University of Michigan, priority 2021, published 2025)

Assays:
fibrocytes [1] = assay: Gene promoter activity assay (Secrete-Pair Dual Luminescence); type: cell-based, human; settings: 50 μg/mL
Method: Cell transfections, gene promoter assays and siRNA knockdown studies The nucleofection method was utilized to transfect fibrocytes with the U-023 program of the Nucleofector II instrument (Lonza, Walkersville, MD) and the Amaxa human CD34 cell nucleofection kit (cat. no. VPA-1003; Lonza). To assess human gene promoter activities, appropriate fragments described in earlier reports were selected and cloned for MHC II, CD80, CD86, and PD-L1. Confluent fibrocyte monolayers were treated with human Isotype IgG or teprotumumab (50 μg/mL) for 3 d. Cells were transfected with the following target gene promoter fragment sequences supplied by GeneCopoeia (Rockville, MD): MHC-2 (cat. #HPRM49526), −100 to +1429 nt; CD80 (cat. #HPRM45966), −300 to +1350 nt; CD86 (cat. #HPRM46979), −231 to +1272 nt; PD-L1 (cat. #HPRM40139), −237 to +1282 nt; and negative control clone PG04 (cat. #NEG-PG04). After 3-4 d, cells were incubated without or with bTSH (5 mU/mL) for 2 h. Monolayers were harvested and promoter activities measured using the Secrete-Pair Dual Luminescence Assay Kit (cat. #LF033, GeneCopoeia Rockville, MD) according to manufacturer's instructions in an FB12 tube luminometer (Zylux, Huntsville, AL). Values were normalized to internal controls and each experiment was performed at least three times. […]

fibrocytes [2] = assay: mRNA stability with DRB; type: cell-based, human; settings: 50 μg/mL, up to 12 hrs
Method: FIGS. 5A-5C show the effects of teprotumumab on basal and bTSH-induced gene promoter activities in GD-OF compared to fibrocytes, gene transcription and mRNA stabilities of MHC II, CD80, CD86, PD-L1 in fibrocytes. Confluent GD-OF and fibrocyte monolayers were treated with human Isotype IgG (5 μg/ml) or teprotumumab (50 μg/mL) for 3 d and transfected with a target gene promoter fragment (MHC-2, CD80, CD86, PD-L1, or negative control clone PG04). Following a 3-4 d incubation, they were treated without or with bTSH (5 mU/mL) for 2 h. Monolayers were rinsed, processed, and analyzed using the Secrete-Pair Dual Luminescence Assay Kit for promoter activity according to manufacturer's instructions (FIG. 5A). Values were normalized to internal controls. Fibrocyte monolayers were cross-linked with 16% formaldehyde isolated chromatin fragment and immunoprecipitated with anti-human HLA-DPB1, anti-CD80, anti-CD86, or anti-PD-L1 using the Pierce™ Agarose Chip Kit. Isolated DNA was subjected to RT-PCR using EpiTect ChIP qPCR Primer Assay (Qiagen) for each target (FIG. 5B). Each datum point represents values from three independent determinations from one of three experiments performed. *, p<0.05; ** p<0.01; and ***p<0.001. Fibrocyte cultures were pretreated with bTSH for 6 h. […] RNA was extracted, reverse transcribed, and subjected to real-time quantitative PCR for each target (FIG. 5C). […]

Question: teprotumumab was tested. Which “activities of MHC II, CD80, CD86, PD-L1 gene promoter fragments” value (fibrocytes [1]; 3 days) did it give?
Answer: Its value is “downregulated”.

Question: What about the “bTSH induction of each gene promoter fragment” value (fibrocytes [1]; bTSH 2 h) of the same substance?
Answer: The value was “attenuated”.

Question: And the “stabilities of mRNA encoding MHC II, CD80, CD86, PD-L1” value (fibrocytes [2])?
Answer: The value was “accelerated their decline”.
